Laboratory results published in ChEMBL document CHEMBL4725231, “Design and synthesis of 1,3-benzothiazinone derivatives as potential anti-inflammatory agents” (Bioorg Med Chem, 2020).
Calls of active or inactive are those of the source. The rule behind the calls is not given here.

System: not listed separately
Assay: Cytotoxicity against mouse RAW264.7 cells assessed as cell viability at 12.5 to 200 uM incubated for 24 hrs by MTT assay relative to control
Assay type: cell-based
Conditions: dose 12.5-200 µM, read-out: Activity

Q: For COC(=O)CC1N(C(=O)Nc2cccc(C)n2)C(=O)c2ccccc2S1(=O)=O (stereo not drawn), which viability at 24 h, up to 200 µM is on record?
A: > 80%

Q: With CC1NC(=O)c2ccccc2S1(=O)=O (stereo not drawn) as the compound, how does the viability at 24 h, up to 200 µM read?
A: > 80%

Q: For Cc1csc(NC(=O)N2C(=O)c3ccccc3S(=O)(=O)C2C)n1 (stereo not drawn), which viability at 24 h, up to 200 µM is on record?
A: > 80%

Q: Which viability at 24 h, up to 200 µM does the source give for COC(=O)CC1N(C(=O)Nc2nnc(C)s2)C(=O)c2ccccc2S1(=O)=O (stereo not drawn) here?
A: > 80%

Q: Which viability at 24 h, up to 200 µM does the source give for COC(=O)CC1N(C(=O)Nc2nccs2)C(=O)c2ccccc2S1(=O)=O (stereo not drawn) here?
A: > 80%

Q: Which viability at 24 h, up to 200 µM does the source give for COC(=O)CC1N(C(=O)Nc2ccccc2)C(=O)c2ccccc2S1(=O)=O (stereo not drawn) here?
A: > 80%

Q: With CC1N(C(=O)Nc2nccs2)C(=O)c2ccccc2S1(=O)=O (stereo not drawn) as the compound, how does the viability at 24 h, up to 200 µM read?
A: > 80%

Q: Which viability at 24 h, up to 200 µM does the source give for Cc1cnc(NC(=O)N2C(=O)c3ccccc3S(=O)(=O)C2C)s1 (stereo not drawn) here?
A: > 80%

Q: With CC1N(C(=O)Nc2ccccc2)C(=O)c2ccccc2S1(=O)=O (stereo not drawn) as the compound, how does the viability at 24 h, up to 200 µM read?
A: > 80%

Q: With COC(=O)CC1N(C(=O)Nc2ncc(C)s2)C(=O)c2ccccc2S1(=O)=O (stereo not drawn) as the compound, how does the viability at 24 h, up to 200 µM read?
A: > 80%

System: RAW264.7
Assay: Antiinflammatory activity in mouse RAW264.7 cells assessed as downregulation of LPS-induced TNFalpha production at 100 uM measured after 24 hrs by ELISA
Assay type: functional, cell-based
Conditions: not given

Q: Which Activity does the source give for CC1NC(=O)c2ccccc2S1(=O)=O (stereo not drawn) here?
A: Active

Q: With Cc1csc(NC(=O)N2C(=O)c3ccccc3S(=O)(=O)C2C)n1 (stereo not drawn) as the compound, how does the Activity read?
A: Active

Q: For COC(=O)CC1N(C(=O)Nc2nccs2)C(=O)c2ccccc2S1(=O)=O (stereo not drawn), which Activity is on record?
A: Active

Q: Which Activity does the source give for CC1N(C(=O)Nc2nccs2)C(=O)c2ccccc2S1(=O)=O (stereo not drawn) here?
A: Active

Q: Which Activity does the source give for Cc1cnc(NC(=O)N2C(=O)c3ccccc3S(=O)(=O)C2C)s1 (stereo not drawn) here?
A: Active

System: RAW264.7
Assay: Antiinflammatory activity in mouse RAW264.7 cells assessed as upregulation of LPS-induced IL-10 production measured after 24 hrs by ELISA
Assay type: functional, cell-based
Conditions: dose microM 1-100, time 24.0 hrs

Q: With CC1NC(=O)c2ccccc2S1(=O)=O (stereo not drawn) as the compound, how does the Activity read?
A: Dose-dependent effect

System: RAW264.7
Assay: Antiinflammatory activity in mouse RAW264.7 cells assessed as inhibition of LPS-induced NO generation pretreated for 24 hrs measured after 10 mins by Griess reagent based assay
Assay type: functional, cell-based
Conditions: not given

Q: With CC1NC(=O)c2ccccc2S1(=O)=O (stereo not drawn) as the compound, how does the IC50 read?
A: 6.2 µM

System: not listed separately
Assay: Ulcerogenic activity in Kunming mouse assessed as effect on stomach mucosal wall at 700 umol/kg, po administered as single dose measured at 7 hrs post ligation by light microscopic analysis
Assay type: toxicity, organism-based
Conditions: in vivo, dose 700 µM/Kg

Q: With CC1NC(=O)c2ccccc2S1(=O)=O (stereo not drawn) as the compound, how does the Activity read?
A: Non-Toxic

Biological target: Prostaglandin G/H synthase 1 (Homo sapiens, UniProt P23219)
Sequence (P23219 whole entry): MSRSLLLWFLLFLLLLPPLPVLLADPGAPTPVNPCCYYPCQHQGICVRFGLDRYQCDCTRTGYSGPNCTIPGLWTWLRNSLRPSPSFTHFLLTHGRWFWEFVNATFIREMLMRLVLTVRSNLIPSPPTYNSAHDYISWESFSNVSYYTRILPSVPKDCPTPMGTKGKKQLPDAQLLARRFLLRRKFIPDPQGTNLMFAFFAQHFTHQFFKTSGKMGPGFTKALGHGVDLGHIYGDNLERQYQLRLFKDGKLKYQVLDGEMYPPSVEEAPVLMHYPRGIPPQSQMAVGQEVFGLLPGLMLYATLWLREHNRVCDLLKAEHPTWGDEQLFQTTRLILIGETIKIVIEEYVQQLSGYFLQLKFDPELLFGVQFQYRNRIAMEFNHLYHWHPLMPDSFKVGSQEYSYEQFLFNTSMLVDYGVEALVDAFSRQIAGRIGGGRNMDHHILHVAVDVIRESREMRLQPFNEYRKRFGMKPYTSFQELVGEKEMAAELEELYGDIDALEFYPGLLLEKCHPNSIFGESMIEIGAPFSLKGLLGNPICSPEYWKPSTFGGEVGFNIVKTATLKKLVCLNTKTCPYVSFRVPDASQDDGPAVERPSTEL
Assay: Inhibition of human recombinant COX1 assessed as reduction in PGF2alpha formation using arachidonic acid as substrate preincubated for 10 mins measured after substrate addition by microplate reader based enzyme immunoassay
Conditions: not given

Q: For CC1NC(=O)c2ccccc2S1(=O)=O (stereo not drawn), which IC50 is on record?
A: 273 µM

Biological target: T1, Prostaglandin G/H synthase 2 (Homo sapiens, UniProt P35354)
T1 sequence (P35354 whole entry): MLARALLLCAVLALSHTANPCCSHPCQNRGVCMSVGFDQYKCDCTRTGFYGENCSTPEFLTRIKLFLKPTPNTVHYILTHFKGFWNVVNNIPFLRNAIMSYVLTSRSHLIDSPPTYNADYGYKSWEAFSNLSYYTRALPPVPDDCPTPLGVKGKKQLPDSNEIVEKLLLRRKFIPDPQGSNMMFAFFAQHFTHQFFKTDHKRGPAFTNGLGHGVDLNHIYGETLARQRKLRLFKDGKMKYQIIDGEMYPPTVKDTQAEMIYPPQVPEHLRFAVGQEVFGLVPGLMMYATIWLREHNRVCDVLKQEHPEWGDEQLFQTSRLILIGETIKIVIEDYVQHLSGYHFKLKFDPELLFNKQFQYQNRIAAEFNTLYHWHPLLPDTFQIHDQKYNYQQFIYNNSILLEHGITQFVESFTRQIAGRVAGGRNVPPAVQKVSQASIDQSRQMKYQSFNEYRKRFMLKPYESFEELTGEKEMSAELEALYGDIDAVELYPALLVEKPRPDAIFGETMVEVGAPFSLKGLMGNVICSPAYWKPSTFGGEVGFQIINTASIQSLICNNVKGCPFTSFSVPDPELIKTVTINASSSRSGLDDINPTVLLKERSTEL
Assay: Inhibition of human recombinant COX2 assessed as reduction in PGH2 formation using arachidonic acid as substrate preincubated for 10 mins measured after substrate addition by microplate reader based enzyme immunoassay
Conditions: not given

Q: With COC(=O)CC1N(C(=O)Nc2cccc(C)n2)C(=O)c2ccccc2S1(=O)=O (stereo not drawn) as the compound, how does the IC50 read?
A: 288 µM

Q: For CC1NC(=O)c2ccccc2S1(=O)=O (stereo not drawn), which IC50 is on record?
A: 424 µM

Q: With Cc1csc(NC(=O)N2C(=O)c3ccccc3S(=O)(=O)C2C)n1 (stereo not drawn) as the compound, how does the IC50 read?
A: 292 µM

Q: Which IC50 does the source give for COC(=O)CC1N(C(=O)Nc2nnc(C)s2)C(=O)c2ccccc2S1(=O)=O (stereo not drawn) here?
A: 800 µM

Q: Which IC50 does the source give for COC(=O)CC1N(C(=O)Nc2nccs2)C(=O)c2ccccc2S1(=O)=O (stereo not drawn) here?
A: 460 µM

Q: Which IC50 does the source give for COC(=O)CC1N(C(=O)Nc2ccccc2)C(=O)c2ccccc2S1(=O)=O (stereo not drawn) here?
A: 445 µM

Q: For CC1N(C(=O)Nc2nccs2)C(=O)c2ccccc2S1(=O)=O (stereo not drawn), which IC50 is on record?
A: 115 µM

Q: Which IC50 does the source give for Cc1cnc(NC(=O)N2C(=O)c3ccccc3S(=O)(=O)C2C)s1 (stereo not drawn) here?
A: 276 µM

Q: For CC1N(C(=O)Nc2ccccc2)C(=O)c2ccccc2S1(=O)=O (stereo not drawn), which IC50 is on record?
A: 320 µM

Q: With COC(=O)CC1N(C(=O)Nc2ncc(C)s2)C(=O)c2ccccc2S1(=O)=O (stereo not drawn) as the compound, how does the IC50 read?
A: 194 µM

System: RAW264.7
Assay: Antiinflammatory activity in mouse RAW264.7 cells assessed as downregulation of LPS-induced TNFalpha production at 10 uM measured after 24 hrs by ELISA
Assay type: functional, cell-based
Conditions: not given

Q: Which Activity does the source give for CC1NC(=O)c2ccccc2S1(=O)=O (stereo not drawn) here?
A: Active

System: RAW264.7
Assay: Antiinflammatory activity in mouse RAW264.7 cells assessed as inhibition of LPS-induced phosphorylation of STAT3 at 100 uM incubated for 24 hrs by Western blot analysis
Assay type: functional, cell-based
Conditions: not given

Q: For CC1NC(=O)c2ccccc2S1(=O)=O (stereo not drawn), which inhibition is on record?
A: Active

Organism: Homo sapiens
Assay: Selectivity index, ratio of IC50 for human recombinant COX1 to IC50 for human recombinant COX2 using arachidonic acid as substrate preincubated for 10 mins measured after substrate addition by microplate reader based enzyme immunoassay
Conditions: not given

Q: With CC1NC(=O)c2ccccc2S1(=O)=O (stereo not drawn) as the compound, how does the Selectivity Index read?
A: 0.65

System: RAW264.7
Assay: Antiinflammatory activity in mouse RAW264.7 cells assessed as inhibition of LPS-induced NO generation at 1 to 100 uM pretreated for 24 hrs measured after 10 mins by Griess reagent based assay
Assay type: functional, cell-based
Conditions: dose microM 1-100, time 24.0 hrs

Q: Which “inhibition of LPS-induced NO generation (active/not active)” value does the source give for COC(=O)CC1N(C(=O)Nc2cccc(C)n2)C(=O)c2ccccc2S1(=O)=O (stereo not drawn) here?
A: inactive

Q: Which “inhibition of LPS-induced NO generation (active/not active)” value does the source give for CC1NC(=O)c2ccccc2S1(=O)=O (stereo not drawn) here?
A: Active

Q: For Cc1csc(NC(=O)N2C(=O)c3ccccc3S(=O)(=O)C2C)n1 (stereo not drawn), which “inhibition of LPS-induced NO generation (active/not active)” value is on record?
A: Active

Q: Which “inhibition of LPS-induced NO generation (active/not active)” value does the source give for COC(=O)CC1N(C(=O)Nc2nnc(C)s2)C(=O)c2ccccc2S1(=O)=O (stereo not drawn) here?
A: inactive

Q: For COC(=O)CC1N(C(=O)Nc2nccs2)C(=O)c2ccccc2S1(=O)=O (stereo not drawn), which “inhibition of LPS-induced NO generation (active/not active)” value is on record?
A: Active

Q: For COC(=O)CC1N(C(=O)Nc2ccccc2)C(=O)c2ccccc2S1(=O)=O (stereo not drawn), which “inhibition of LPS-induced NO generation (active/not active)” value is on record?
A: inactive

Q: With CC1N(C(=O)Nc2nccs2)C(=O)c2ccccc2S1(=O)=O (stereo not drawn) as the compound, how does the “inhibition of LPS-induced NO generation (active/not active)” value read?
A: Active

Q: Which “inhibition of LPS-induced NO generation (active/not active)” value does the source give for Cc1cnc(NC(=O)N2C(=O)c3ccccc3S(=O)(=O)C2C)s1 (stereo not drawn) here?
A: Active

Q: With CC1N(C(=O)Nc2ccccc2)C(=O)c2ccccc2S1(=O)=O (stereo not drawn) as the compound, how does the “inhibition of LPS-induced NO generation (active/not active)” value read?
A: inactive

Q: For COC(=O)CC1N(C(=O)Nc2ncc(C)s2)C(=O)c2ccccc2S1(=O)=O (stereo not drawn), which “inhibition of LPS-induced NO generation (active/not active)” value is on record?
A: inactive

System: Rattus norvegicus
Assay: Anti-inflammatory activity against carrageenan-induced Sprague-Dawley rat model assessed as decrease of PGE2 expression level at 150 uM/kg, po dosed 1 hr post after carrageenan challenge measured after 8 hrs by ELISA assay
Assay type: functional, organism-based
Conditions: not given

Q: For CC1NC(=O)c2ccccc2S1(=O)=O (stereo not drawn), which Activity is on record?
A: Active

System: Rattus norvegicus
Assay: Anti-inflammatory activity against carrageenan-induced Sprague-Dawley rat model assessed as reduction in paw swelling rate at 31.6 mg/kg, po dosed 1 hr post after carrageenan challenge measured at 3 to 8 hrs relative to control
Assay type: functional
Set-up: scale not given: the % may be the effect or the level left
Conditions: time hrs 3-8

Q: With CC1NC(=O)c2ccccc2S1(=O)=O (stereo not drawn) as the compound, how does the Activity read?
A: 40%

System: RAW264.7
Assay: Antiinflammatory activity in mouse RAW264.7 cells assessed as reduction in LPS-induced NF-kappaB p65 phosphorylation at 10 to 100 uM incubated for 24 hrs by Western blot analysis
Assay type: functional, cell-based
Conditions: dose microM 10-100, time 24.0 hrs

Q: For CC1NC(=O)c2ccccc2S1(=O)=O (stereo not drawn), which Activity is on record?
A: Active

System: not listed separately
Assay: Acute toxicity in Kunming mouse administered orally as single dose measured at day 7
Conditions: in vivo, po, time 7 day

Q: Which LD50 at 168 h does the source give for CC1NC(=O)c2ccccc2S1(=O)=O (stereo not drawn) here?
A: 2000 mg/kg

System: not listed separately
Assay: Ulcerogenic activity in Kunming mouse assessed as gastric lesion at 700 umol/kg, po administered as single dose measured at 7 hrs post ligation by microscopic analysis
Assay type: toxicity, organism-based
Conditions: in vivo, dose 700 µM/Kg

Q: With CC1NC(=O)c2ccccc2S1(=O)=O (stereo not drawn) as the compound, how does the UI read?
A: 0

System: RAW264.7
Assay: Antiinflammatory activity in mouse RAW264.7 cells assessed as inhibition of LPS-induced COX2 protein expression measured after 24 hrs by ELISA
Assay type: functional, cell-based
Conditions: dose microM 10-100, time 24.0 hrs

Q: Which Activity does the source give for CC1NC(=O)c2ccccc2S1(=O)=O (stereo not drawn) here?
A: Dose-dependent effect
